Data: patent US9856256B2, “Pyridino[1,2-A]pyrimidone analogue used as P13K inhibitor” (CHIA TAI TIANQING PHARMACEUTICAL GROUP CO., LTD., priority 2014, dated 2018)

Each compound was assayed against PI3K (p110α) (Homo sapiens, UniProt P42336) (assay: In vitro enzyme activity assay, PI3K (p110α) kinase, Method II (ADP-Glo assay)). Conditions: read-out: PI3K (p110α) enzyme activity_IC50.
Type: biochemical
Design: purchased Millipore 14-602-K
Description: PI3K (p110α) kinase activities of the compounds in all the examples of the present invention were tested via the following two methods, respectively.
Dilution of the Compound:
The compound to be tested was diluted with a 3-fold concentration gradient, and 10 concentrations (from 10000 nM to 0.5 nM) were obtained in total.
50 nL of the compound was transferred to a reaction plate (PerkinElmer #6007299) and 3 μL of enzyme/substrate mixture (0.33 nM PI3Kalpha, Millipore #14-602-K/166.5 μM PIP2) was added. After 20 min incubation, 2 uL of ATP solution (100 uM) was added to initiate the reaction. After reacting for 2 hours at room temperature, 5 μL of ADP-Glo reagent was added to terminate the kinase reaction. Then the mixture was incubated at room temperature for 60 min to completely digest the remaining unreacted ATP, 10 uL of kinase detection reagent was added, and after 40 min incubation at room temperature, […] was readed on an Envision. PIP2, ATP, ADP-Glo and the kinase detection reagent were all from ADP-Glo kinase assay kit (Promega #V1792).
IC50 was calculated using standard 4-parameter fit method (Model205, XL-fit, iDBS).

Sequence of PI3K (p110α) (P42336 whole entry): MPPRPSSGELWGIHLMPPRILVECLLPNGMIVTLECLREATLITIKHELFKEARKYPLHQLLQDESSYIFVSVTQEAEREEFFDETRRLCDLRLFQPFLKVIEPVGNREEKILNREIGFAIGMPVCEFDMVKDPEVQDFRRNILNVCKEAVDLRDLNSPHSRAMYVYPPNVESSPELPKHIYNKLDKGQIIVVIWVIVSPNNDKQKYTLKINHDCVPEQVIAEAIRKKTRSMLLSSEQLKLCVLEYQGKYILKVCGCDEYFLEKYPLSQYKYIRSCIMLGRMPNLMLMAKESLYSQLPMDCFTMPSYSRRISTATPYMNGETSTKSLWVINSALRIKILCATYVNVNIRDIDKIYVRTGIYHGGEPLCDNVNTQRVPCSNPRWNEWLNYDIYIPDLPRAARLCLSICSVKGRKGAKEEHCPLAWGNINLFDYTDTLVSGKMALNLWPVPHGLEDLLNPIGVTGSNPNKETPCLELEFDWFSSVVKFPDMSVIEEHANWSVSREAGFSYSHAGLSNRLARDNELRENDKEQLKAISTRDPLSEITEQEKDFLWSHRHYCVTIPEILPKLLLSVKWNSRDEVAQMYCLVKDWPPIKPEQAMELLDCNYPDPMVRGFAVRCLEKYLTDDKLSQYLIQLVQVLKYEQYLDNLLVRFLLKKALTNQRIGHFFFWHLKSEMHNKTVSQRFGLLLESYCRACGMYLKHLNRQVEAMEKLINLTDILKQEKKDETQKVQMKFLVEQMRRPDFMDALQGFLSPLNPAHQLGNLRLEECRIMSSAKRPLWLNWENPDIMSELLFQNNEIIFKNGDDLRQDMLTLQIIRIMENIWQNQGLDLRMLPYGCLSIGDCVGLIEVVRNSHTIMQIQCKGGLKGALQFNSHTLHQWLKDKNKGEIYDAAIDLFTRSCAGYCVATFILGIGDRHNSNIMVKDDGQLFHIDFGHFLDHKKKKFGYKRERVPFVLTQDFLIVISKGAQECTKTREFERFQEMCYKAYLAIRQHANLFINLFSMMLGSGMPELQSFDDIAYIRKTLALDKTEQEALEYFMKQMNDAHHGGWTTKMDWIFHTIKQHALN
Sequence of PI3K (p110α) (P27986 whole entry partner): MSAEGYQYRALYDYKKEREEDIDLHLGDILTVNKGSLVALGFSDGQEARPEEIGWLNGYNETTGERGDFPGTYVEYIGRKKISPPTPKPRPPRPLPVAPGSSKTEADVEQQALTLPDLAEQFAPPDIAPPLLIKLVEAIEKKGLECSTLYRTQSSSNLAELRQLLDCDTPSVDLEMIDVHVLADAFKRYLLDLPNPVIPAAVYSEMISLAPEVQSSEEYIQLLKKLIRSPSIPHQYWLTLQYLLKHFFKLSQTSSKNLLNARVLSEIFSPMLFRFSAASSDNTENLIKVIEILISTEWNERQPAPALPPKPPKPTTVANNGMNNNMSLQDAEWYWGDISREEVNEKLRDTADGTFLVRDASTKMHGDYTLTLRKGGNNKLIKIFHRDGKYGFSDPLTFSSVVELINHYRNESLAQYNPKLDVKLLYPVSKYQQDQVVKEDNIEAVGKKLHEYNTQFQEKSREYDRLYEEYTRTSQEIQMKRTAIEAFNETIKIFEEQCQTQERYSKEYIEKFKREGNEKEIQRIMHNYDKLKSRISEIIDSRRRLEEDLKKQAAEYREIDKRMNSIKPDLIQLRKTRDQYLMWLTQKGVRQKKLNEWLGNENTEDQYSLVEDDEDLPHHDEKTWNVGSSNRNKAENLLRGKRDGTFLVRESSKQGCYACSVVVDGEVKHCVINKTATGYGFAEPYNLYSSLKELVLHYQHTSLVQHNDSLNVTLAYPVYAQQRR

`COc1ncc(-c2ccc3ncc(OCCn4nccc4C)c(=O)n3c2)cc1NS(=O)(=O)c1ccc(F)cc1F` [Compound 40] and `COc1ncc(-c2ccc3ncc(OCCn4ccc(C)n4)c(=O)n3c2)cc1NS(=O)(=O)c1ccc(F)cc1F` [Compound 38] fall in the same range of IC50: 1 to 50 nM for the first, 1 to 50 nM for the second.

Compared with `COc1ncc(-c2ccc3ncc(OCCN4CCS(=O)(=O)CC4)c(=O)n3c2)cc1NS(=O)(=O)c1sc(C)nc1C` [Compound 61], `COc1ncc(-c2ccc3ncc(OCCN4CCOCC4)c(=O)n3c2)cc1S(=O)(=O)Nc1sc(C)nc1C` [Compound 58, N-(2,4-dimethylthiazol-5-yl)-2-methoxy-5-(3-(2-morpholinoethoxy)-4-oxo-4H-4H-pyrido[1,2-a]pyrimidin-7-yl)pyridine-3-sulfonamide] is higher in IC50: ≤ 1 nM for the first, > 200 nM for the second.

`COc1ncc(-c2ccc3ncc(OCCN4CCOCC4)c(=O)n3c2)cc1NC(=O)c1sc(C)nc1C` [Compound 56, N-(2-Methoxy-5-(3-(2-morpholinoethoxy)-4-oxo-4H-pyrido[1,2-a]pyrimidin-7-yl)pyridin-3-yl)-2,4-dimethylthiazole-5-carboxamide] and `COc1ncc(-c2ccc3ncc(OCCN4CCOCC4)c(=O)n3c2)cc1NC(=O)Nc1sc(C)nc1C` [Compound 54] cannot be ordered by IC50: > 200 nM for the first, > 200 nM for the second.

`COc1ncc(-c2ccc3ncc(OCCN4CCOCC4C(N)=O)c(=O)n3c2)cc1NS(=O)(=O)c1ccc(F)cc1Cl` (centres unmarked) [Compound 86] and `COc1ncc(-c2ccc3ncc(OCC4CCN(C)CC4)c(=O)n3c2)cc1NS(=O)(=O)c1ccc(F)cc1Cl` [Compound 71] cannot be ordered by IC50: ≤ 1 nM for the first, 1 to 50 nM for the second.

`COc1ncc(-c2ccc3ncc(OCCNCC(F)(F)F)c(=O)n3c2)cc1NS(=O)(=O)c1ccc(F)cc1Cl` [Compound 92] and `COc1ncc(-c2ccc3ncc(OCCN(CCO)CC(F)(F)F)c(=O)n3c2)cc1NS(=O)(=O)c1ccc(F)cc1Cl` [Compound 84] cannot be ordered by IC50: ≤ 1 nM for the first, 1 to 50 nM for the second.

`COc1ncc(-c2ccc3ncc(CN(C)C)c(=O)n3c2)cc1NS(=O)(=O)c1sc(C)nc1C` [Compound 52] and `COc1ncc(-c2ccc3ncc(OC(C)CN4CCOCC4)c(=O)n3c2)cc1NS(=O)(=O)c1ccc(F)cc1Cl` (centres unmarked) [Compound 67] fall in the same range of IC50: 1 to 50 nM for the first, 1 to 50 nM for the second.

`COc1ncc(-c2ccc3ncc(OCCN4CCN(S(C)(=O)=O)CC4)c(=O)n3c2)cc1NS(=O)(=O)c1ccc(F)cc1Cl` [Compound 93] and `COc1ncc(-c2ccc3ncc(OCCN4CCOCC4)c(=O)n3c2)cc1NS(=O)(=O)c1c(F)cc(F)cc1Cl` [Compound 64] cannot be ordered by IC50: ≤ 1 nM for the first, ≤ 1 nM for the second.

Compound `COc1ncc(-c2ccc3ncc(OCCn4ccc(C(F)(F)F)n4)c(=O)n3c2)cc1NS(=O)(=O)c1ccc(F)cc1F` [Compound 39] has an IC50 of 1 to 50 nM.

What follows are compounds tested on MCF-7 cells (assay: In vitro cell activity assay (MCF-7, insulin stimulation, ELISA-One)). Conditions: Homo sapiens, MCF7, compound 2 hours in serum-free media, then 10 μg/ml insulin 30 min.
Type: cell-based
Description: Experimental Steps and Method Comprise:
1. MCF-7 cells were seeded at 2,5000 cells per well in a 96 well tissue culture plate in a complete media containing 10%0/FBS.
3. The cells were treated with 10 μg/ml insulin in serum-free media for 30 min.
4. During waiting period, lysis solution was prepared as below:
a) Enhancer Solution needs to be taken out from the refrigerator to be thawed.
b) Concentrated lysis solution was prepared by diluting Enhancer Solution 10-fold in 5× Lysis Buffer.
c) Lysis solution was prepared by diluting concentrated lysis solution 5-fold with ddH2O.
5. Any media were removed from wells and the wells were rinsed with PBS once quickly.
6. 50 μL of freshly prepared lysis solution were added into each well, with shaking at room temperature for 10 min.
7. After confirming that all cells get detached from wells, the lysis solution together with the cell debris was transferred to 1.5 ml tubes.
8. The tubes were vortexed several times to thoroughly mix the lysis solution and cells, and then, and then the mixture was centrifuged at 12,000 g for 10 min at 4° C.;
9. The desired number of ELISA-One microplate strips was determined. Unused strips were removed from frame and returned to storage pouch and seal. Wells for use in the assay were rinsed with 200 μL ddH2O to remove preservatives prior to use.
10. 50 μL of antibody mixture solution was added into each well. (Antibody mixture solution was prepared by mixing capture antibody reagent and detection antibody reagent equally, avoid vortexing)
11. 25 μL of lysate was added into each well of the ELISA-One microplate. The microplate was covered with adhesive seal and incubated for 1 hour at room temperature on a microplate shaker.
12. Each well was washed with 150 μL 1× wash buffer 3 times. After final wash, any remaining wash buffer was removed from wells. If necessary, leave microplate in 1× Wash Buffer for up to 30 min, until substrate mixture solution has been prepared.
13. The substrate mixture solution should be prepared when used, 100 μL of substrate mixture solution was added into each well, and then the microplate was sealed with tin foil and incubated at room temperature for 10 minutes on a microplate shaker.
14. 10 μL of stop solution was added into each well, and then mixed slightly (5-10 seconds) on a microplate shaker.
15. Corresponding ELISA-One filter set was installed to read the fluorescence signal intensity.

`COc1ncc(-c2ccc3ncc(OCCN4C[C@@H](C)O[C@@H](C)C4)c(=O)n3c2)cc1NS(=O)(=O)c1ccc(F)cc1Cl` [Compound 91] and `COc1ncc(-c2ccc3ncc(OCC4CN(C)C4)c(=O)n3c2)cc1NS(=O)(=O)c1ccc(F)cc1Cl` [Compound 28] cannot be ordered by IC50: ≤ 50 nM for the first, ≤ 50 nM for the second.

`COc1ncc(-c2ccc3ncc(OC4CNC4)c(=O)n3c2)cc1NS(=O)(=O)c1ccc(F)cc1Cl` [Compound 30] and `COc1ncc(-c2ccc3ncc(OCC4(C)CNC4)c(=O)n3c2)cc1NS(=O)(=O)c1ccc(F)cc1Cl` [Compound 29] cannot be ordered by IC50: > 250 nM for the first, > 250 nM for the second.

First: COc1ncc(-c2ccc3ncc(OCCN4CCNC(=O)C4)c(=O)n3c2)cc1NS(=O)(=O)c1ccc(F)cc1Cl [Compound 94]
Second: COc1ncc(-c2ccc3ncc(OCCCN4CCN(C)CC4)c(=O)n3c2)cc1NS(=O)(=O)c1ccc(F)cc1Cl [Compound 72]
The IC50 of the first is higher: > 250 nM for the first, ≤ 50 nM for the second. The second is the more potent here.

Compared with `COc1ncc(-c2ccc3ncc(OCC4CCNCC4)c(=O)n3c2)cc1NS(=O)(=O)c1ccc(F)cc1Cl` [Compound 76], `COc1ncc(-c2ccc3ncc(OCCN4CCN(CC(F)(F)F)CC4)c(=O)n3c2)cc1NS(=O)(=O)c1ccc(F)cc1Cl` [Compound 69] is lower in IC50: > 250 nM for the first, ≤ 50 nM for the second.
